The values that follow come from US9556256B2, “Inhibition of cancer metastasis” (The Board of Trustees of The University of Arkansas, priority 2006, dated 2017).

The subject of one test is NRP-1. Kind of test: Real-time PCR gene expression in MCF-7 cells after 5azadC: NRP-1. Format: cell-based, human. The note with it: for Relative expression level of NRP-1 compared with no 5azadC: MCF-7 cells. As to the method: (§1) Real-time PCR was conducted to quantify mRNAs of five genes in four different human breast cancer tumor lines. The assayed genes were Syndecan-1 (SDC-1), Neuropilin-1 (NRP-1), Syndecan-4 (SDC-4), MCSP, and estrogen receptor 1. The tumor lines were MCF7, MDA-MD-468 (MDA-468), MDA-MB-231 (MDA-231), and MDA-MET. MCF-7 and MDA-468 are less aggressive. MDA-231 is an aggressive cell line, and MDA-MET is a subline of MDA-231 that metastasizes to bone. The quantity of each mRNA was assayed in comparison to 18s RNA. NRP-1, SDC-4 and MCSP expression was higher in the two more aggressive cell lines than in either of the two less aggressive cell lines. […] MCF-7 and MDA-468 are epithelial-like, while both MDA-231 and MDA-MET cells are mesenchymal type. Thus, high expression of NRP-1, MCSP and SDC-4 may be related to an epithelial to mesenchymal transition, which is a phenotypic event associated with more metastasis and aggressive growth.
(§2) In this experiment, gene expression levels were assayed by real-time PCR and comparison to 18S RNA levels. The dependence of gene expression on methylation levels was tested by treating tumor cells with varying levels of 5-aza-2′-deoxycytidine (5azadC), which is a demethylating agent (Table 6). Methylation of CpG islands is a well-known mechanism of gene control. Methylation decreases expression of genes whose promoters are methylated. The expression of NRP-1, CHST11, and MCPG each increased with increasing 5azadC concentration, which indicates they are under methylation control, with increased methylation repressing expression of the genes. Urokinase (uPA) was used as a positive control.
Background: In qPCR the cycle at which signal appears reflects the starting amount.

A further test concerns uPA. Kind of test: Real-time PCR gene expression in MCF-7 cells after 5azadC: uPA. Format: cell-based, human. Conditions: positive control gene. Here is the method:
as §1, §2

In the next test the test system is CHST11. Kind of test: Real-time PCR gene expression in MCF-7 cells after 5azadC: CHST11. Format: cell-based, human. Conditions: for Relative expression level of CHST11 compared with no 5azadC: MCF-7 cells. Here is the method: as §1, §2
The subject of another test is Synd-4. In words: Real-time PCR gene expression in MCF-7 cells after 5azadC: Synd-4. Conditions: for Relative expression level of Synd-4 compared with no 5azadC: MCF-7 cells. It counts as cell-based, human. As to the method: as §1, §2
In another test the test system is MCPG. In words: Real-time PCR gene expression in MCF-7 cells after 5azadC: MCPG. Conditions: for Relative expression level of MCPG compared with no 5azadC: MCF-7 cells. Format: cell-based, human. As to the method: as §1, §2
For another test, the target named is P-Selectin (Mus musculus, UniProt Q01102). In words: P-Selectin binding to 4T1 cells by flow cytometry. Conditions: for P-Selectin binding to 4T1 cells after treatment of the cells: cells pre-treated with the agent; for Inhibition of P-Selectin binding to 4T1 cells: P-Selectin pre-treated with chondroitin sulfate, various concentrations. (In general: A flow cytometer gives signals particle by particle.)

Test [1] deals with 4T1 cells. Kind of test: Spontaneous lung metastasis of 4T1 tumors in BALB/c mice after heparin, clonogenic assay. Conditions: 100 units 30 minutes before tumor cell inoculation; 26 days after inoculation. Format: in vivo, mouse. Here is the method: BALB/c female mice (6-8 weeks old) were purchased from Harlan (Indianapolis, Ind.). Tumors were established as described earlier (9). Briefly, each mouse was inoculated subcutaneously in the abdominal mammary gland with 5×10^4 4 T1 cells. To establish a functional correlation between P-Selectin ligand expression of 4T1 cells and their metastatic ability in vivo, we injected mice with 100 units of heparin 30 minutes before tumor cell inoculation. Mice were sacrificed 26 days after tumor inoculation, lungs were harvested and metastatic cells were detected by clonogenic assay. […] All mice that were injected with PBS as control developed lung metastasis.

In test [2] the test system is 4T1 cells. Kind of test: Binding of thrombin-treated Calcein-AM-labeled mouse platelets to 4T1 cells. Format: cell-based. The note with it: 100 U/ml final concentration. Here is the method: To examine if heparin can block the interaction of mouse platelets with tumor cells, 4T1 cells were mixed with Calcein-AM-labeled mouse platelets in the presence of mouse thrombin with or without heparin. Mouse thrombin was added to stimulate relocation of P-Selectin to platelet surface and tumor cells were then analyzed by flow cytometry for Calcein-AM staining, indicating platelet attachment. […] Blood was collected into sodium citrate (0.38% w/v) from naive mice and platelets were isolated from plasma by centrifugation. Platelet were washed and labeled with 5 μM final Calcein-AM (Molecular Probes, Eugene, Oreg., USA) for 15 minutes at 37° C. Platelets were then washed and incubated with 1 U/ml thrombin (Haematologic Technologies Inc, Essex Junction, Vt.) at 37° C. for 10 minutes. Heparin (Baxter Healthcare Corp., Deerfield, Ill., 100 U/ml final concentration) was then added to the mixture of platelets and thrombin, and incubated with 4T1 cells in flow cytometry tubes, for 15 minutes at room temperature, then acquired and analyzed by flow cytometry.

A further test deals with tumor cells. The note with it: clinically relevant dose; reference 8; cited from earlier work.
In test [3] the test system is 4T1 cells. In words: Lung colonies in mice with 4T1 fat pad tumors injected daily with CS. Format: in vivo, mouse. The note with it: 30 days after transplant. As to the method: FIG. 20. Chondroitin sulfate inhibits metastasis. Mice were injected with 4T1 cells into fact pads. After tumors were palpable (3-4 days after transplant) they were daily injected with CS intraperitoneally (ip) or subcutaneously (sc). Micer were sacrificed 30 days after transplant and lung colonies were quantified. Saline injection was used as a control. Comparisons were made between groups treated with CS and the saline group as control. NS, not significant. Average and SD with three animals per group is shown.
Mice were injected with 4T1 cells into fat pads. After tumors were palpable (3-4 days after transplant) the mice were daily injected with CS intraperitoneally (ip) or subcutaneously (sc). The mice were sacrificed 30 days after transplant and lung colonies were quantified. CS was dissolved in saline for injection. Saline control injection by either sc or ip routes produced similar results.

“Also recorded” adds a separate entry of the source.

P-Selectin, sequence (Q01102 with tags, fused parts or gaps limits assumed): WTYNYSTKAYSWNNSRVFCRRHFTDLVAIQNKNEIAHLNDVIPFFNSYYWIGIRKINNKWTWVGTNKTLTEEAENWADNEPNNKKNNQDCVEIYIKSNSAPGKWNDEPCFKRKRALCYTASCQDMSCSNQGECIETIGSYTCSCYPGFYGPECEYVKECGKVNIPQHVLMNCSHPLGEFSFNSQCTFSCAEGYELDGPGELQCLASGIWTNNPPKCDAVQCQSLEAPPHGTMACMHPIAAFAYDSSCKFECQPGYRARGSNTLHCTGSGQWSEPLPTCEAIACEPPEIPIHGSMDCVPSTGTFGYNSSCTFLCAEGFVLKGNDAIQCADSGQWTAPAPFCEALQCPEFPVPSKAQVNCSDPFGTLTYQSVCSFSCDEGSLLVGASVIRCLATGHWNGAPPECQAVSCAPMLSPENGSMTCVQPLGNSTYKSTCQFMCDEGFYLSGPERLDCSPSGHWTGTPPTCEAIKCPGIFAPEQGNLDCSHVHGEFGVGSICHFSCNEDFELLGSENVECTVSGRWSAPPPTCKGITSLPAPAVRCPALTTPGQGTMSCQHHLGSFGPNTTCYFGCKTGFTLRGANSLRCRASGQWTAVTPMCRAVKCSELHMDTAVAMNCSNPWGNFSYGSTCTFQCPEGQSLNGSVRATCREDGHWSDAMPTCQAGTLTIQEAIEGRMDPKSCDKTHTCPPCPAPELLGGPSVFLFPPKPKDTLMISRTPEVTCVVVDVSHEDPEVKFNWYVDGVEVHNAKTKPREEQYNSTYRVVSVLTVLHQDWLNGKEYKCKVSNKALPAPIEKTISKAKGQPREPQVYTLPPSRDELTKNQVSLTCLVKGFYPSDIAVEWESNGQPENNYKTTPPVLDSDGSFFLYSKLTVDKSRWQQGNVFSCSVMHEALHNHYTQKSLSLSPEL
Procedure for P-Selectin: Unless specified otherwise, flow cytometry was conducted as follows. Acquisition and analysis of data was performed on an EPICS®™ XL™.flow cytometer (Beckman Coulter, Inc., Fullerton, Calif.). Cells were passed to new flasks 24 hours before measuring lectin binding. The subconfluent monolayer of cells was detached with Cellstripper (Mediatech, Inc. Herndon, Va.) and washed with Dulbecco's phosphate buffered saline with Ca++ and Mg++ (Mediatech, Inc. Herndon, Va.). Cells were transferred to FACS buffer (Dulbecco's Phosphate Buffered Saline, 1% BSA and 0.1% Sodium Azide), counted and diluted to ˜1-2×10^6/ml. Monoclonal antibodies were added to a final concentration of 10 μg/ml. Cells were incubated on ice for 30 minutes, washed twice with FACS buffer, before the addition of FITC-conjugated streptavidin (2 μg/ml) for lectin analysis or FITC-conjugated goat anti-mouse immunoglobulin for monoclonal analysis. Cells were then washed and fixed with paraformaldehyde, before analysis by flow cytometry.
Recombinant E- and P-Selectin/Fc (human IgG) were purchased from R&D systems, Minneapolis, Minn. These recombinant molecules and FITC-conjugated anti-human IgG were used for binding analyses in flow cytometry assays. Human and murine recombinant selectins were used for human and murine cells, respectively.
Binding of recombinant P-Selectin to cells was examined after treatment with heparinase and chondroitinase ABC or in the presence of various concentrations of heparin and chondroitin sulfate A, B, C, and E (Seikagaku America, Falmouth, Mass.).

As for `Nc1ncn([C@H]2C[C@H](O)[C@@H](CO)O2)c(=O)n1` [5azadC, 5-aza-2′-deoxycytidine], the “Relative expression level of NRP-1 compared with no 5azadC” value in the test on NRP-1 (0.5 μM) is given as 1.04; in the test with NRP-1 (1 μM), 1.50; with NRP-1 (5 μM) it was 1.72; with NRP-1 (20 μM), 1.71. Also, the “Expression of NRP-1 with increasing 5azadC concentration” value in the test on NRP-1 (trend over 0.5-20 μM) is given as “increased”. Further, the “Relative expression level of uPA compared with no 5azadC” value in the test with uPA (0.5 μM) is on record as 2.2; in the test on uPA (1 μM) it was 2.9; in the test on uPA (5 μM), 3.2; in the test on uPA (20 μM), 3.9. Besides, the “Relative expression level of CHST11 compared with no 5azadC” value with CHST11 (0.5 μM) is 1.34; in the test with CHST11 (1 μM) it was 1.68; in the test with CHST11 (5 μM) it was 3.7; with CHST11 (20 μM) it was 4.00. Further, the “Expression of CHST11 with increasing 5azadC concentration” value with CHST11 (trend over 0.5-20 μM) is listed as “increased”. Moreover, the “Relative expression level of Synd-4 compared with no 5azadC” value is reported as 0.7 in the test with Synd-4 (0.5 μM), 0.5 in the test with Synd-4 (1 μM), 0.8 in the test on Synd-4 (5 μM) and 0.6 with Synd-4 (20 μM). In addition, in the test with Synd-4 (trend over 0.5-20 μM), the “Syndecan-4 expression with 5azadC treatment” value is recorded as “decreased or remained approximately constant”. The “Relative expression level of MCPG compared with no 5azadC” value is 1.3 with MCPG (0.5 μM), 1.4 in the test with MCPG (1 μM), 1.7 in the test with MCPG (5 μM) and 2.1 with MCPG (20 μM). Besides, the “Expression of MCPG with increasing 5azadC concentration” value in the test with MCPG (trend over 0.5-20 μM) is “increased”.
As to `O=C(O)CN(CCN(CC(=O)O)CC(=O)O)CC(=O)O` [EDTA], the “P-Selectin reactivity with 4T1 cells in presence of EDTA” value is listed as “inhibited P-Selectin reactivity only at high concentrations” on P-Selectin (high concentrations (20 and 40 mM)); “not blocked” at P-Selectin (low concentration (10 mM)).
Turning to `[Na+].[O-][Cl+2]([O-])[O-]` [sodium chlorate], the “P-Selectin binding to 4T1 cells after treatment of the cells” value on P-Selectin was “elimination of P-Selectin binding in a majority of the cells”.
For Heparin, in the test on 4T1 cells [1], the “Mice with complete absence of metastases in lung” value is on record as “six mice out of total of seven” and the “Number of mice positive for established lung metastases, Positive (total)” value is on record as “*1 (7)”. Further, the “Effective dose for inhibition of P-Selectin binding, as concentration” value at P-Selectin (corresponds to 120 units) amounted to 0.7 mg/mL. Further, the “Inhibition of P-Selectin binding to cells” value at P-Selectin (sLex-Neg 4T1 cell variant, recombinant P-Selectin pre-incubated with 0.7-120 Units heparin) was “efficiently inhibited P-Selectin binding to cells in a dose dependent manner”. Moreover, the “Effective dose for inhibition of P-Selectin binding” value on P-Selectin (sLex-Neg 4T1 cells, FIG. 10) stood at 120 units. Further, the “Binding of thrombin treated platelets to tumor cells” value in the test with 4T1 cells [2] was “reduced”. Also, the “Lung metastasis in experimental models” value in the test with tumor cells is reported as “inhibited lung metastasis”.
As to “Neuraminidase: Neuraminidase (Vibrio cholerae) from Sigma, used at 50 mU/ml”, the “P-Selectin binding to 4T1 cells after treatment of the cells” value with P-Selectin was “did not change”.
On to chondroitin sulfate A [CS A], for which, at P-Selectin, the “Inhibition of P-Selectin binding to 4T1 cells” value is given as “minimal inhibitory effects”.
On the same count and under the same terms, next, chondroitin sulfate C [CS C]: “minimal inhibitory effects”.
With chondroitin sulfate E [CS E], at P-Selectin (4T1 cells), the “Concentration giving complete inhibition of P-Selectin binding” value is 0.5 mg/mL. For the same compound, the “Inhibition of P-Selectin binding to 4T1 cells” value on P-Selectin is recorded as “inhibited P-Selectin binding; also recorded: effectively inhibit”.
As to chondroitin sulfate [CS], the “Metastasis (lung colonies) compared to saline control” value is given as “decreased metastasis” in the test with 4T1 cells [3] (1 mg subcutaneously daily), “decreased metastasis” in the test with 4T1 cells [3] (10 mg subcutaneously daily) and “did not appear to” in the test with 4T1 cells [3] (intraperitoneally daily).
In the case of dermatan sulfate [CS B], at P-Selectin (0.005-5.0 mg/ml), the “Concentration dependence of inhibition of P-Selectin binding” value is “inhibitory effects only at higher concentrations”. Moreover, the “Inhibition of P-Selectin binding to 4T1 cells” value at P-Selectin is recorded as “inhibited P-Selectin binding”.
